Results as given in PubChem BioAssay AID396.

Target: 14-3-3 protein beta/alpha (Homo sapiens) (UniProt P31946)
Assay: 14-3-3 beta ligand binding via Tm shift – biophysical, DSF, SYPRO orange, recombinant human protein (AID 396)
Details: Recombinant YWHAB, DSF SYPRO orange thermal shift; at 10 µM; protein 2.3 µM; buffer 10 mM HEPES; pH 7.5; NaCl 150 mM; hits give high values

14-3-3 protein beta/alpha (Homo sapiens), sequence (P31946 whole entry, looked up): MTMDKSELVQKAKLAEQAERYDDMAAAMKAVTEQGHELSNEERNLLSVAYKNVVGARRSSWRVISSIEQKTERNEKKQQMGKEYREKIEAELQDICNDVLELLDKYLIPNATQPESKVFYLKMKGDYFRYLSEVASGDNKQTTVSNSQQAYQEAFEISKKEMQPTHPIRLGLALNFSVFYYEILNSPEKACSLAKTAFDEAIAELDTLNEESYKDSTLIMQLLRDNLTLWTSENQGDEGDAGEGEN

## O=c1c(O)c(-c2ccc(O)c(O)c2)oc2cc(O)cc(O)c12
  Tm shift: 3.13 Celsius
